Earlier results in patent US12311052B2, “Mitochondrial performance enhancement nanoemulsion method” (Quicksilver Scientific, Inc., priority 2017, dated 2025).
Where two headings read alike, the source gives them in different places. Each block holds one compound with its values, some of them ahead of it.

Key:
[1] = consumed orally
mice = details: PQQ deficient mice compared to PQQ supplemented mice
cells = details: inhibitors rotenone, 3-nitropropionic acid, antimycin A, sodium azide
Hepa1-6 mouse cells = details: 10-30 μM PQQ for 24-48 hours
[2] = oral administration; extensively metabolized to glucuronide conjugate by liver and intestine

bioavailability [1]: ~10%
SMILES: COC1=C(OC)C(=O)C(C/C=C(\C)CC/C=C(\C)CC/C=C(\C)CC/C=C(\C)CC/C=C(\C)CC/C=C(\C)CC/C=C(\C)CC/C=C(\C)CC/C=C(\C)CCC=C(C)C)=C(C)C1=O [CoQ10, Coenzyme Q10]

SMILES: O=C(O)c1cc(C(=O)O)c2c(n1)C(=O)C(=O)c1cc(C(=O)O)[nH]c1-2.[Na].[Na] [PQQ, Pyrroloquinoline quinone disodium salt]
reduction in the relative amount of mitochondria in the liver (mice): 20 to 30%
protection of cells from mitochondrial inhibition (cells): protect cells from mitochondrial inhibition
citrate synthase and cytochrome c oxidase activity, Mitotracker staining, mitochondrial DNA content, cellular oxygen respiration (Hepa1-6 mouse cells): increased citrate synthase and cytochrome c oxidase activity, Mitotracker staining, mitochondrial DNA content, and cellular oxygen respiration

bioavailability [2]: about 0.5%
SMILES: Oc1ccc(/C=C/c2cc(O)cc(O)c2)cc1 [resveratrol, 3,5,4′-trihydroxy-trans-stilbene]
